Values quoted from earlier work as cited in patent US20120201889A1, “MODIFIED AND IMMEDIATE RELEASE FORMULATIONS OF MEMANTINE” (Forest Laboratories Holdings Ltd., priority 2005, published 2012).

Details: after oral administration

absolute bioavailability: approximately 100%
Compound: CC12CC3CC(C)(C1)CC(N)(C3)C2 [memantine, 1-amino-3,5-dimethyladamantane]
